From patent US20150065440A1 (Progen Pharmaceuticals Limited, priority 2007, published 2015) come the findings set out here.

Series [1] relates to normal pooled human plasma. As to the kind of experiment: Anticoagulant activity, Heptest. As to conditions: 0.1 mg/mL in normal pooled human plasma.
Series [2] addresses T1, recombinant human heparanase (Homo sapiens, UniProt Q9Y251).
T1 sequence (Q9Y251 158-543 limits assumed): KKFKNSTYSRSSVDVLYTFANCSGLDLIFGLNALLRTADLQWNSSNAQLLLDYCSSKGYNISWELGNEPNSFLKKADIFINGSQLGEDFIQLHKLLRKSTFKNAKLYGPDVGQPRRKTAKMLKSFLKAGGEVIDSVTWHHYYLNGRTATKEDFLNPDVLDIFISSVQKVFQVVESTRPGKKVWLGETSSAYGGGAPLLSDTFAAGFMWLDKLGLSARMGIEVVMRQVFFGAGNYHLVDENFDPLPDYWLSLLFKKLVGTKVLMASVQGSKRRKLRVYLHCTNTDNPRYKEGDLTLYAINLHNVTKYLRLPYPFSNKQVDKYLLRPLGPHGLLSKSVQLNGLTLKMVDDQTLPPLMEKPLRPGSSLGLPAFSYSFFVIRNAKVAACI
T1 sequence (Q9Y251 36-109 limits assumed): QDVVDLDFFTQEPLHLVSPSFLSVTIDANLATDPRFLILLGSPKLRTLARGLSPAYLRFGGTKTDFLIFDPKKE
As to the kind of experiment: Heparanase inhibition assay (fondaparinux cleavage, WST-1). As to conditions: read-out: Ki Heparanase; IC50 converted into Ki; fondaparinux 100 μM, pH 5.0. A general note: Tetrazolium assays rely on reduction of a dye to a coloured formazan, in cell work by metabolically active cells.
Protocol: In the presence of an inhibitor the catalytic activity of heparanase is reduced, and the amount of disaccharide produced and the optical density of the solution are both decreased. The percent inhibition and IC50 of the inhibitor are determined from measurement of the optical density (OD) over a range of inhibitor concentrations.
Assays were carried out in 40 mM sodium acetate buffer, pH 5.0, as follows. […] A blue colour was developed by incubation of the plates at 60° C. for 60 min. […] The IC50 value for each compound was evaluated and converted into a Ki (inhibition constant) using the expression

Series [3] concerns pooled normal human plasma. As to the kind of experiment: Anticoagulant activity, APTT. As to conditions: 0.1 mg/mL in normal pooled human plasma. As to the method:
APTT measurements were performed on a STAGO STA-Compact Coagulation Analyser using standard protocols according to the manufacturer's instructions. Unfractionated heparin (UFH) was used as a control.

The target in another series is FGF-1 (Homo sapiens, UniProt P05230). The experiment in a line: Growth factor binding assay (SPR solution affinity), FGF-1. As to conditions: SPR, HBS-EP buffer, 25° C.; read-out: Kd FGF-1.
A further series has as its system RSV. The experiment in a line: Viral plaque number-reduction assay, RSV. Particulars: for Selective index CC50/IC50 RSV: HEp-2 cells. As to the method:
African green monkey kidney (GMK AH1) cells^46 were cultured in Eagle's minimum essential medium (EMEM) supplemented with 2% calf serum, 0.05% Primaton RL substance (Kraft Inc., Norwich, USA) and antibiotics. Human epidermoid carcinoma (HEp-2) cells were cultured in Dulbecco's modified EMEM (DMEM) supplemented with 10% fetal calf serum and antibiotics. […] The RSV strain A-2^50 was used. The RSV stock was prepared as described by Hallak et al.^51 and stored at −70° C. in the presence of 40% sucrose^52.
The viral infectivity (the plaque number-reduction) assay and the plaque size-reduction assay were carried out as described previously^17. […] Subsequently, the cells were washed with 2 mL of EMEM and overlaid with 1% methylcellulose solution in EMEM. The plaques were visualized by staining with crystal violet solution after 2 (HSV-2) or 3 (HSV-1) days of incubation at 37° C. […] When the compounds were screened for anti-HSV or anti-RSV activity, mixtures of 200 PFU of the virus and the test compound (100 μg/mL) in serum-free EMEM were incubated for 10 min at room temperature before addition to cells and during the entire period of viral infection of cells and the development of viral plaques. In the plaque size-reduction assay, the compounds were added to cells (in methylcellulose overlay medium) after 2 h period of virus infection of cells in the absence of the inhibitor. After 2-3 days of incubation at 37° C., the viral plaques were visualized by staining the cells with 1% solution of crystal violet. For each compound tested, the images of twenty neighboring plaques were captured using a Leica DC300 digital camera attached to a Leitz-Wetzlar Diavert microscope. The area of each plaque was determined using IM500 image software (Leica). Similar protocols were used for RSV, except that the assays were performed in HEp-2 cells and DMEM supplemented with 2% heat-inactivated fetal calf serum was used instead of EMEM.

The next series concerns the target T2, VEGF (Homo sapiens, UniProt P15692).
T2 sequence (P15692 207-395): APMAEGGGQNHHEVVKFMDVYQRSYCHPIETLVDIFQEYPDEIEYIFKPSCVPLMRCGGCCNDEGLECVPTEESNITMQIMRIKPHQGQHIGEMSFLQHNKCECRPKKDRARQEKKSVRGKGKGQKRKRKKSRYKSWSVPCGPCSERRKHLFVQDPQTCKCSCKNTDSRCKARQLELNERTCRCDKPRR
As to the kind of experiment: Growth factor binding assay (SPR solution affinity), VEGF. As to conditions: HBS-EP buffer, 25° C. A digest of the protocol: (§1)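 Kd measured by SPR solution affinity: fixed growth factor with varying ligand competing for heparin-coated sensorchip, 25 °C. Buffer HBS-EP pH 7.4 (150 mM NaCl) for FGF-1 and VEGF; FGF-2 with 0.3 M NaCl. Duplicate values averaged.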

A further series has as its system HSV-2. The experiment in a line: Viral plaque number-reduction assay, HSV-2. As to conditions: for Selective index CC50/IC50 HSV-2: GMK AH1 cells. An outline of the steps:
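200 PFU virus premixed 10 min with compound (100 μg/mL screen) and kept throughout infection. HSV plaques in GMK AH1 cells, RSV (strain A-2) in HEp-2 cells. Methylcellulose overlay, 37 °C, crystal violet staining after 2 days (HSV-2) or 3 days (HSV-1); plaque numbers counted.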

Another series deals with FGF-2 (Homo sapiens, UniProt P09038). As to the kind of experiment: Growth factor binding assay (SPR solution affinity), FGF-2. A digest of the protocol:
as §1

The mark [4] stands for this setting: SPR, HBS-EP buffer containing 0.3 M NaCl, 25° C.; read-out: Kd FGF-2.

The structures appear in SMILES notation. Read-outs that look alike come from different tables or passages of the source.

FGF-2, sequence (P09038 143-288, species assumed): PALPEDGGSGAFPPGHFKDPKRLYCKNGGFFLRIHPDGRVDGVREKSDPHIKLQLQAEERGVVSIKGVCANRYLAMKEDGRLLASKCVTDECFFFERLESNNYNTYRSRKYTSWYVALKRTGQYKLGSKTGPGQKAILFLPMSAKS
FGF-1, sequence (P05230 whole entry, species assumed): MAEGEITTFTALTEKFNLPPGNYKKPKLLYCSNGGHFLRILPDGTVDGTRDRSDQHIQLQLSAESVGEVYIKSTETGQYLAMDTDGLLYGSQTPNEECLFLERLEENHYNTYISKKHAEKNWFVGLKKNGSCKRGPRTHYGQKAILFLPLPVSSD

In general, Ki refers to the equilibrium dissociation constant of an inhibitor or competing ligand from its target. By Kd is commonly meant a measure of binding affinity in units of concentration. For the compound `CCCCCCCCCCCCOC1OC(COS(=O)(=O)O)C(OS(=O)(=O)O)C(OS(=O)(=O)O)C1OC1OC(COS(=O)(=O)O)C(OS(=O)(=O)O)C(OC2OC(COS(=O)(=O)O)C(OS(=O)(=O)O)C(OC3OC(COS(=O)(=O)O)C(OS(=O)(=O)O)C(OC4OC(COS(=O)(=O)O)C(OS(=O)(=O)O)C(OS(=O)(=O)O)C4OS(=O)(=O)O)C3OS(=O)(=O)O)C2OS(=O)(=O)O)C1OS(=O)(=O)O` [Compound 4, Dodecyl 2,3,4,6-tetra-O-sodium sulfonato-α-D-mannopyranosyl-(1→3)-2,4,6-tri-O-sodium sulfonato-α-D-mannopyranosyl-(1→3)-2,4,6-tri-O-sodium sulfonato-α-D-mannopyranosyl-(1→3)-2,4,6-tri-O-sodium sulfonato-α-D-mannopyranosyl-(1→2)-3,4,6-tri-O-sodium sulfonato-α-D-mannopyranoside], the Heptest in series [1] was 64.2 s. Also, the Ki in series [2] came to 0.0042 ± 0.0005 µM. The APTT in series [3] is 125.9 s. Further, the Kd amounted to 0.006 ± 0.003 µM on FGF-1, 0.012 ± 0.003 µM at VEGF and 0.48 ± 0.07 µM on FGF-2 (setting [4]). Also, in the series on RSV, the “Selective index CC50/IC50 RSV” value is reported as more than 87. Also, in the series on HSV-2, the “Selective index CC50/IC50 HSV-2” value is on record as more than 444.

Regarding `CC(C)CCCC(C)C1CCC2C3CCC4CC(OC5OC(COS(=O)(=O)O)C(OS(=O)(=O)O)C(OS(=O)(=O)O)C5OC5OC(COS(=O)(=O)O)C(OS(=O)(=O)O)C(OC6OC(COS(=O)(=O)O)C(OS(=O)(=O)O)C(OC7OC(COS(=O)(=O)O)C(OS(=O)(=O)O)C(OS(=O)(=O)O)C7OS(=O)(=O)O)C6OS(=O)(=O)O)C5OS(=O)(=O)O)CCC4(C)C3CCC12C` [Compound 20, 3β-Cholestanyl 2,3,4,6-tetra-O-sodium sulfonato-α-D-mannopyranosyl-(1→3)-2,4,6-tri-O-sodium sulfonato-α-D-mannopyranosyl-(1→3)-2,4,6-tri-O-sodium sulfonato-α-D-mannopyranosyl-(1→2)-3,4,6-tri-O-sodium sulfonato-α-D-mannopyranoside], the Heptest in series [1] amounted to 28.0 s. Moreover, the inhibition constant (Ki) in series [2] stood at 0.0058 ± 0.0015 µM. The compound further displayed an APTT in series [3] of 94.0 s. Further, the Kd on FGF-1 amounted to 0.0006 ± 0.0005 µM; at VEGF, 0.022 ± 0.006 µM; at FGF-2 (read-out: Kd FGF-2; SPR, HBS-EP buffer containing 0.3 M NaCl, 25° C.) it was 0.16 ± 0.04 µM. Further, the “Selective index CC50/IC50 RSV” value in the series with RSV turned out to be 66. For the same compound, the “Selective index CC50/IC50 HSV-2” value in the series on HSV-2 was determined as 100.

Usually IC50 stands for the concentration at which inhibition is half-maximal. For the compound `CC(C)CCC[C@@H](C)[C@H]1CC[C@H]2[C@@H]3CC[C@H]4C[C@@H](O[C@H]5O[C@H](COS(=O)(=O)O)[C@@H](OS(=O)(=O)O)[C@H](OS(=O)(=O)O)[C@@H]5O[C@H]5O[C@H](COS(=O)(=O)O)[C@@H](OS(=O)(=O)O)[C@H](OS(=O)(=O)O)[C@@H]5OS(=O)(=O)O)CC[C@]4(C)[C@H]3CC[C@]12C` [Compound 33, 3β-Cholestanyl 2,3,4,6-tetra-O-sodium sulfonato-α-D-mannopyranosyl-(1→2)-3,4,6-tri-O-sodium sulfonato-α-D-mannopyranoside], the Heptest in series [1] was determined as 25.5 s. The Ki in series [2] stood at 0.0223 ± 0.0016 µM. The same compound returned an APTT in series [3] of 40.6 s. Also, the Kd was 0.27 ± 0.03 µM on FGF-1, 1.3 ± 0.3 µM on VEGF and 1.57 ± 0.15 µM on FGF-2 (setting [4]). In addition, the IC50 stood at 1.8 µg/mL with RSV (human respiratory syncytial virus, read-out: RSV IC50) and 0.7 µg/mL in the series on HSV-2 (Human alphaherpesvirus 2, read-out: HSV-2 IC50).
